Measured values published in BigSolDB 2.1.

For `Brc1sc(Br)c(Br)c1Br`, which solubility (mole fraction) (in THF, 278.15 K) is on record?
The solubility (mole fraction) was 0.0397.

And the solubility (mole fraction) (in THF, 282.15 K)?
Its solubility (mole fraction) is 0.043.

What about the solubility (mole fraction) (in THF, 286.15 K) of the same molecule?
Its solubility (mole fraction) is 0.0463.

And the solubility (mole fraction) (in THF, 290.15 K)?
The solubility (mole fraction) was 0.05.

What about the solubility (mole fraction) (in THF, 294.15 K) of the same molecule?
Its solubility (mole fraction) is 0.0539.

What about the solubility (mole fraction) (in THF, 298.15 K) of the same molecule?
Its solubility (mole fraction) is 0.0581.

And the solubility (mole fraction) (in THF, 302.15 K)?
Its solubility (mole fraction) is 0.0627.

What about the solubility (mole fraction) (in THF, 306.15 K) of the same molecule?
Its solubility (mole fraction) is 0.0671.

What about the solubility (mole fraction) (in THF, 310.15 K) of the same molecule?
Its solubility (mole fraction) is 0.0719.

And the solubility (mole fraction) (in THF, 314.15 K)?
The solubility (mole fraction) was 0.0766.

And the solubility (mole fraction) (in THF, 318.15 K)?
The solubility (mole fraction) was 0.082.

What about the solubility (mole fraction) (in THF, 322.15 K) of the same molecule?
The solubility (mole fraction) was 0.0869.

What about the solubility (mole fraction) (in ethanol, 278.15 K) of the same molecule?
Its solubility (mole fraction) is 0.00126.

What about the solubility (mole fraction) (in ethanol, 282.15 K) of the same molecule?
The solubility (mole fraction) was 0.00134.

And the solubility (mole fraction) (in ethanol, 286.15 K)?
The solubility (mole fraction) was 0.00151.

And the solubility (mole fraction) (in ethanol, 290.15 K)?
The solubility (mole fraction) was 0.00181.

What about the solubility (mole fraction) (in ethanol, 294.15 K) of the same molecule?
Its solubility (mole fraction) is 0.00206.

And the solubility (mole fraction) (in ethanol, 298.15 K)?
Its solubility (mole fraction) is 0.00241.

And the solubility (mole fraction) (in ethanol, 302.15 K)?
Its solubility (mole fraction) is 0.00268.

And the solubility (mole fraction) (in ethanol, 306.15 K)?
Its solubility (mole fraction) is 0.00305.

And the solubility (mole fraction) (in ethanol, 310.15 K)?
The solubility (mole fraction) was 0.00353.

And the solubility (mole fraction) (in ethanol, 314.15 K)?
The solubility (mole fraction) was 0.00389.

What about the solubility (mole fraction) (in ethanol, 318.15 K) of the same molecule?
The solubility (mole fraction) was 0.00442.

And the solubility (mole fraction) (in ethanol, 322.15 K)?
Its solubility (mole fraction) is 0.00501.
